Measurements taken from patent US6235751A, “Quinolizine carboxylic acid derivatives” (Korean Research Institute of Chemical Technology, priority 1997, dated 2001).
≈ marks a conversion by molar mass, not a printed value. Where two headings read alike, the source gives them in different places.

How the values were obtained:
[1] = tested on: Streptococcus pyogenes A 308; experiment: Antibacterial activity in vitro (MIC, two-fold agar dilution); assay type: cell-based; details: read-out: Minimal Inhibitory Concentration (MIC)
From the text: (§1) Test 1. Antibacterial activity in vitro
1. Streptococcus pyogenes A 308

[2] = tested on: Streptococcus pyogenes A 77; experiment: as above; assay type: cell-based; details: read-out: Minimal Inhibitory Concentration (MIC)
From the text: as §1
2. Streptococcus pyogenes A 77

[3] = tested on: Streptococcus faecium MD 8b; experiment: as above; assay type: cell-based; details: Enterococcus faecium, MD8B, read-out: Minimal Inhibitory Concentration (MIC)
From the text: as §1
3. Streptococcus faecium MD 8b

[4] = tested on: Staphylococcus aureus SG 511; experiment: as above; assay type: cell-based; details: SG511, Muller Hinton agar, 10^7 CFU/ml, 37° C., 18 hours, read-out: Minimal Inhibitory Concentration (MIC)
From the text: as §1
4. Staphylococcus aureus SG 511

[5] = tested on: Escherichia coli DC 0; experiment: as above; assay type: cell-based; details: read-out: Minimal Inhibitory Concentration (MIC)
From the text: as §1

[6] = tested on: Escherichia coli DC 2; experiment: as above; assay type: cell-based; details: DC2, Muller Hinton agar, 10^7 CFU/ml, 37° C., 18 hours, read-out: Minimal Inhibitory Concentration (MIC)
From the text: as §1

[7] = tested on: Pseudomonas aeruginosa 1592E; experiment: as above; assay type: cell-based; details: Muller Hinton agar, 10^7 CFU/ml, 37° C., 18 hours, read-out: Minimal Inhibitory Concentration (MIC)
From the text: as §1
13. Pseudomonas aeruginosa 1592 E

[8] = tested on: Pseudomonas aeruginosa 1771; experiment: as above; assay type: cell-based; details: Muller Hinton agar, 10^7 CFU/ml, 37° C., 18 hours, read-out: Minimal Inhibitory Concentration (MIC)
From the text: as §1
14. Pseudomonas aeruginosa 1771

[9] = tested on: calf thymus topoisomerase II; experiment: Inhibition of topoisomerase II enzyme activity; assay type: biochemical; parameters: unit not given here; details: concentration to inhibit the enzyme activity of topoisomerase II (calf thymus)
From the text: (§2) Test 2. Selectivity Index

[10] = biological target: gyrase of E. coli (Escherichia coli, UniProt P0AES4+P0AES6); experiment: Inhibition of gyrase enzyme activity; assay type: biochemical; parameters: unit not given here; details: concentration to inhibit the enzyme activity of gyrase of E. coli
Sequence of gyrase of E. coli (P0AES4 whole entry, one chain of several): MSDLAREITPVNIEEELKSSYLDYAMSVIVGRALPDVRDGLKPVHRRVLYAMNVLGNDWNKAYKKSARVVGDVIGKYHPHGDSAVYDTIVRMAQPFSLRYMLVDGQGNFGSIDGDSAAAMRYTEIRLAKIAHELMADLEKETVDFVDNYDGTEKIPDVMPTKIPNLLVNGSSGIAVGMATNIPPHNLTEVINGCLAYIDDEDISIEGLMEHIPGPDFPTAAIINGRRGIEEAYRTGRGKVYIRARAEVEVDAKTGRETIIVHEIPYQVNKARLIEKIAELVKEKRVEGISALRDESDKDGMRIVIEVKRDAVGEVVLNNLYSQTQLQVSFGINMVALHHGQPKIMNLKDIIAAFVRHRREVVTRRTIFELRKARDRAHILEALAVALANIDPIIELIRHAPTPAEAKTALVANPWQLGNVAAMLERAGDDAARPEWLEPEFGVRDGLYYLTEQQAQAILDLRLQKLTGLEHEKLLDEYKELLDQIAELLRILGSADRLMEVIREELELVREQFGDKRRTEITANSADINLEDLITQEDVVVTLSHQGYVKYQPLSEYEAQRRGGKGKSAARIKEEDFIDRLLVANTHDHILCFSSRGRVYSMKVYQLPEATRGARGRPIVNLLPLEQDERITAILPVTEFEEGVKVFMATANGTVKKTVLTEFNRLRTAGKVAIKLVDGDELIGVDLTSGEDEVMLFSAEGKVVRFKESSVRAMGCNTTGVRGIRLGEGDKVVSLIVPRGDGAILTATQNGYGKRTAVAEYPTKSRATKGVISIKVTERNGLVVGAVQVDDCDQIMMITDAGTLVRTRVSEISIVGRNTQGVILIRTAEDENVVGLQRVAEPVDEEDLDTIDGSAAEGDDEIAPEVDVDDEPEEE
From the text: as §2

[11] = tested on: Escherichia coli TEM; experiment: microbe, parasite or virus in culture; details: 18 h, read-out: Minimal Inhibitory Concentration (MIC)
[12] = tested on: Staphylococcus aureus 285; experiment: Antibacterial activity in vitro (MIC, two-fold agar dilution); details: Staphylococcus aureus, 285, 18 h, read-out: Minimal Inhibitory Concentration (MIC)
[13] = tested on: Staphylococcus aureus 503; experiment: as above; details: Staphylococcus aureus, 503, 18 h, read-out: Minimal Inhibitory Concentration (MIC)
[14] = tested on: Escherichia coli 078; experiment: as above; details: Escherichia coli, 078, 18 h, read-out: Minimal Inhibitory Concentration (MIC)
[15] = tested on: Escherichia coli 1507E; experiment: as above; details: 18 h, read-out: Minimal Inhibitory Concentration (MIC)
[16] = tested on: Pseudomonas aeruginosa 9027; experiment: as above; details: Pseudomonas aeruginosa, 9027, 18 h, read-out: Minimal Inhibitory Concentration (MIC)
[17] = tested on: Salmonella typhimurium; experiment: as above; details: Salmonella enterica, 18 h, read-out: Minimal Inhibitory Concentration (MIC)
[18] = tested on: Klebsiella oxytoca 1082E; experiment: as above; details: 18 h, read-out: Minimal Inhibitory Concentration (MIC)
[19] = tested on: Klebsiella aerogenes 1552E; experiment: as above; details: 18 h, read-out: Minimal Inhibitory Concentration (MIC)
[20] = tested on: Enterobacter cloacae P99; experiment: microbe, parasite or virus in culture; details: P99, 18 h, read-out: Minimal Inhibitory Concentration (MIC)
From the text: as §1
19. Enterobacter cloacae P 99

[21] = tested on: Enterobacter cloacae 1321E; experiment: microbe, parasite or virus in culture; details: 18 h, read-out: Minimal Inhibitory Concentration (MIC)
From the text: as §1

[22] = tested on: gyrase of E. coli and calf thymus topoisomerase II; details: calculated by equation 1 from IC100, Topo II and IC100, Gyrase
Experimental: as §2
Selectivity indexes of the compounds of the present invention and control compounds were measured using gyrase purified from of E. coli and calf thymus topoisomerase II obtained from Topogen. Co.
The selectivity index (S.I.) was calculated by the equation 1. [formula]
wherein, IC100, Topo II is the concentration of a compound to inhibit the enzyme activity of topoisomerase II and IC100, Gyrase is the concentration of a compound to inhibit the enzyme activity of gyrase of E. coli.

[23] = Streptococcus pyogenes, A308, 18 h
[24] = Streptococcus pyogenes, A77, 18 h

O=C(O)c1cn(C2CC2)c2cc(N3CCNCC3)c(F)cc2c1=O [Ciprofloxacin, 1-cyclopropyl-6-fluoro-7-(piperazin-1-yl)-4-oxoquinoline-3-carboxylic acid, reference compound]
MIC [1, 23]: 3.12 µg/mL (≈ 9.43 µM) | MIC [2, 24]: 0.781 µg/mL (≈ 2.36 µM) | MIC ([3]; 18 h): 0.391 µg/mL (≈ 1.18 µM) | MIC [4]: 0.195 µg/mL (≈ 0.589 µM) | MIC ([5]; Escherichia coli, DC0, 18 h): 0.195 µg/mL (≈ 0.589 µM) | MIC [6]: 0.049 µg/mL (≈ 0.148 µM) | MIC [7]: 0.195 µg/mL (≈ 0.589 µM) | MIC [8]: 0.195 µg/mL (≈ 0.589 µM) | IC100, Topo II [9]: 500 | IC100, Gyrase [10]: 0.5 | MIC [11]: 0.007 µg/mL (≈ 0.0211 µM) | MIC [12]: 0.781 µg/mL (≈ 2.36 µM) | MIC [13]: 0.391 µg/mL (≈ 1.18 µM) | MIC [14]: 0.004 µg/mL (≈ 0.0121 µM) | MIC [15]: 0.007 µg/mL (≈ 0.0211 µM) | MIC [16]: 0.195 µg/mL (≈ 0.589 µM) | MIC [17]: 0.007 µg/mL (≈ 0.0211 µM) | MIC [18]: < 0.002 µg/mL | MIC [19]: 0.013 µg/mL (≈ 0.0392 µM)

CC1CN(c2c(F)c(N)c3c(=O)c(C(=O)O)cn(C4CC4)c3c2F)CC(C)N1 (stereo not shown) [Sparfloxacin, 1-cyclopropyl-5-amino-6,8-difluoro-7-(3,5-dimethylpiperazin-1-yl)-4-oxoquinoline-3-carboxylic acid, reference compound]
MIC [1, 23]: 0.391 µg/mL (≈ 0.996 µM) | MIC [2, 24]: 0.195 µg/mL (≈ 0.497 µM) | MIC ([3]; 18 h): 0.391 µg/mL (≈ 0.996 µM) | MIC [4]: 0.098 µg/mL (≈ 0.25 µM) | MIC ([5]; Escherichia coli, DC0, 18 h): 0.195 µg/mL (≈ 0.497 µM) | MIC [6]: 0.025 µg/mL (≈ 0.0637 µM) | MIC [7]: 0.781 µg/mL (≈ 1.99 µM) | MIC [8]: 0.781 µg/mL (≈ 1.99 µM) | MIC [20]: 0.007 µg/mL (≈ 0.0178 µM) | MIC [21]: 0.004 µg/mL (≈ 0.0102 µM) | IC100, Topo II [9]: 500 | IC100, Gyrase [10]: 1.0 | S.I. (Selectivity Index) [22]: 500 | MIC [11]: 0.013 µg/mL (≈ 0.0331 µM) | MIC [12]: 0.049 µg/mL (≈ 0.125 µM) | MIC [13]: 0.049 µg/mL (≈ 0.125 µM) | MIC [14]: 0.004 µg/mL (≈ 0.0102 µM) | MIC [15]: 0.025 µg/mL (≈ 0.0637 µM) | MIC [16]: 0.781 µg/mL (≈ 1.99 µM) | MIC [17]: 0.007 µg/mL (≈ 0.0178 µM) | MIC [18]: < 0.002 µg/mL | MIC [19]: 0.025 µg/mL (≈ 0.0637 µM)

Cc1c(N2CC(CN)C(OCc3cccnc3)C2)c(F)cn2c(=O)c(C(=O)O)cc(C3CC3)c12 (stereo not shown) [Example 16, 8-{[3-(3-pyridylmethyl)oxy-4-aminomethylpyrrolidine]-1-yl}-1-cyclopropyl-7-fluoro-9-methyl-4-oxo-4H-quinolizine-3-carboxylic acid]
MIC [1, 23]: 0.098 µg/mL (≈ 0.21 µM) | MIC [2, 24]: 0.049 µg/mL (≈ 0.105 µM) | MIC ([3]; 18 h): 0.049 µg/mL (≈ 0.105 µM) | MIC [4]: 0.013 µg/mL (≈ 0.0279 µM) | MIC ([5]; Escherichia coli, DC0, 18 h): 0.098 µg/mL (≈ 0.21 µM) | MIC [6]: 0.013 µg/mL (≈ 0.0279 µM) | MIC [7]: 0.195 µg/mL (≈ 0.418 µM) | MIC [8]: 0.195 µg/mL (≈ 0.418 µM) | MIC [20]: 0.004 µg/mL (≈ 0.00857 µM) | MIC [21]: < 0.002 µg/mL | IC100, Topo II [9]: 1,000 | IC100, Gyrase [10]: 0.5 | S.I. (Selectivity Index) [22]: 2,000 | MIC [11]: 0.007 µg/mL (≈ 0.015 µM) | MIC [12]: 0.013 µg/mL (≈ 0.0279 µM) | MIC [13]: 0.013 µg/mL (≈ 0.0279 µM) | MIC [14]: < 0.002 µg/mL | MIC [15]: 0.013 µg/mL (≈ 0.0279 µM) | MIC [16]: 0.195 µg/mL (≈ 0.418 µM) | MIC [17]: 0.004 µg/mL (≈ 0.00857 µM) | MIC [18]: < 0.002 µg/mL | MIC [19]: 0.013 µg/mL (≈ 0.0279 µM)

Cc1c(N2CC3=CCCN[C@H]3C2)c(F)cn2c(=O)c(C(=O)O)cc(C3CC3)c12 [Example 1, 8-{[(R)-2,8-diazabicyclo[4.3. 0]non-5-en]-8-yl}-1-cyclopropyl-7-fluoro-9-methyl-4-oxo-4H-quinolizine-3-carboxylic acid]
MIC ([1]; A308, Streptococcus pyogenes A 308, Muller Hinton agar, 10^7 CFU/ml, 37° C., 18 hours): 0.049 µg/mL (≈ 0.128 µM) | MIC ([2]; A77, Streptococcus pyogenes A 77, Muller Hinton agar, 10^7 CFU/ml, 37° C., 18 hours): 0.025 µg/mL (≈ 0.0652 µM) | MIC ([3]; Streptococcus faecium MD 8b, Muller Hinton agar, 10^7 CFU/ml, 37° C., 18 hours): 0.025 µg/mL (≈ 0.0652 µM) | MIC [4]: 0.007 µg/mL (≈ 0.0183 µM) | MIC ([5]; DC0, Escherichia coli DC 0, Muller Hinton agar, 10^7 CFU/ml, 37° C., 18 hours): 0.049 µg/mL (≈ 0.128 µM) | MIC [6]: 0.013 µg/mL (≈ 0.0339 µM) | MIC [7]: 0.098 µg/mL (≈ 0.256 µM) | MIC [8]: 0.098 µg/mL (≈ 0.256 µM) | MIC [20]: 0.004 µg/mL (≈ 0.0104 µM) | MIC [21]: < 0.002 µg/mL | IC100, Topo II [9]: 1,000 | IC100, Gyrase [10]: 0.5 | S.I. (Selectivity Index) [22]: 2,000 | MIC [11]: 0.007 µg/mL (≈ 0.0183 µM) | MIC [12]: 0.013 µg/mL (≈ 0.0339 µM) | MIC [13]: 0.007 µg/mL (≈ 0.0183 µM) | MIC [14]: < 0.002 µg/mL | MIC [15]: 0.007 µg/mL (≈ 0.0183 µM) | MIC [16]: 0.195 µg/mL (≈ 0.509 µM) | MIC [17]: 0.004 µg/mL (≈ 0.0104 µM) | MIC [18]: < 0.002 µg/mL | MIC [19]: 0.013 µg/mL (≈ 0.0339 µM)
